Measured values: US20090143421A1, “USE OF 2-BENZOYL-IMIDAZOPYRIDINES IN THERAPEUTICS” (SANOFI-AVENTIS, priority 2006, published 2009)
Counter-ions that a name gives are not always drawn.

Columns and labels:
human NOT receptor = assay: binding to the human NOT receptor by SPR (BIACORE S51); conditions: immobilized GST-NOT whole protein and NOT ligand-binding domain, 3.75 to 0.1 μM, 4° C.
Protocol: Evaluation of the Binding to the Human NOT Receptor
The direct binding between compounds of the invention and the human NOT receptor was evaluated using SPR (surface plasmon resonance) technology. In this assay, the protein is immobilized covalently to the matrix and the molecule to be studied is injected into the chamber containing the sensor chip. The signal is directly proportional to the amount of product bound to the protein. The binding assays were carried out in a BIACORE S51 instrument (Biacore Inc., Piscataway N.J.). The GST-NOT (NOT-FL) whole protein was provided by Invitrogen (PV3265). The NOT ligand-binding domain (His-Thr-NOT 329-598) was expressed and purified as described in Nature 423, 555-560. The two proteins, diluted to a concentration of 20 μg/ml in an acetate buffer, pH 5.0, containing 5 mM of DTT, were immobilized on a carboxymethyl 5′ dextran surface (CM5 sensor chip, Biacore Inc.) by amine coupling according to the protocol recommended by Biacore, elution being carried with an HBS-N buffer (10 mM HEPES, 0.15 M NaCl, 3 mM EDTA, pH 7.4). Approximately 10000-15000 resonance units (RU) of the proteins are captured on the surface of the CM5 sensor chip. […] The dissociation was recorded for 5 minutes without any other procedure for regenerating the surface. […]

mouse Nurrl receptor = molecular target: T1, mouse Nurrl receptor (Mus musculus, UniProt Q06219); assay: in vitro activity on N2A cells (NBRE-luciferase reporter); type: cell-based; conditions: N2A-8NBRE-luciferase cells, 24 hours incubation with the products
T1 construct: a cell line (N2A) endogenously expressing the mouse Nurrl receptor; host or cells: Neuro-2A (N2A) mouse neuroblastoma cells stably transfected with 8NBRE-luciferase
Protocol: Evaluation of the in vitro Activity on N2A Cells
Assays consisted in measuring the in vitro activity of the compounds of the invention on a cell line (N2A) endogenously expressing the mouse Nurrl receptor and stably transfected with the NOT binding response element (NBRE) coupled to the luciferase reporter gene. The EC50 values are between 0.01 and 1000 nM. The assays were carried out according to the procedure described below.
The Neuro-2A cell line comes from a standard commercial source (ATCC) . The Neuro-2A clone was obtained from a spontaneous tumor originating from an A albino mouse strain, by R. J Klebe et al. This Neuro-2A line is subsequently stably transfected with 8NBRE-luciferase. The N2A-8NBRE cells are cultured until confluence in 75 cm^2 culture flasks containing DMEM supplemented with 10% of fetal calf serum, 4.5 g/l of glucose and 0.4 mg/ml of geneticin. After a week of culture, the cells are recovered with 0.25% trypsin for 30 seconds and then resuspended in DMEM without phenol red, containing 4.5 g/l of glucose and 10% of Hyclone delipidized serum, and deposited into transparent-bottom 96-well white plates. The cells are deposited at a rate of 60 000 per well in 75 μl for 24 hours before the addition of the products. […] The plates are subsequently measured in a luminescence counter for microplates after having been sealed with an adhesive film. […]

T1 sequence (Q06219 whole entry): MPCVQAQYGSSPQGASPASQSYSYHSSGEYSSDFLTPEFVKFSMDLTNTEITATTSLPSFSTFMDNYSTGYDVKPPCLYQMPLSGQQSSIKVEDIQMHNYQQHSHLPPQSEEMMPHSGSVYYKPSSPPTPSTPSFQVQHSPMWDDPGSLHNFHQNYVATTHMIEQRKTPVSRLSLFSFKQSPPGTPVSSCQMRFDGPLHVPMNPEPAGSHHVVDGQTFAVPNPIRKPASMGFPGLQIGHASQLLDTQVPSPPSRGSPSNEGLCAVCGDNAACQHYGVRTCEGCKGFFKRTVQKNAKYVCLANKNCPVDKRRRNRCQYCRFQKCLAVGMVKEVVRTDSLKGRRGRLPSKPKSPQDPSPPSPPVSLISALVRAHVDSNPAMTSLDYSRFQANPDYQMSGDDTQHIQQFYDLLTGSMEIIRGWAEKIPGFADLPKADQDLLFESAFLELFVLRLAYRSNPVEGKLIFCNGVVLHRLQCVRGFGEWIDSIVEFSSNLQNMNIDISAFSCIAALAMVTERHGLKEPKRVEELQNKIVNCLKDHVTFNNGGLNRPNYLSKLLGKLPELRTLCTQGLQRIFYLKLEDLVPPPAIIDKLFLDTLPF

Row | affinity (classified by maximum binding level and kinetic parameters) (human NOT receptor) | EC50 (mouse Nurrl receptor) | Structure (SMILES)
1 | high affinity |  | O=C(c1ccccc1)c1cn2cc(Cl)ccc2n1 [Compound 3, (6-Chloroimidazo[1,2-a]Pyridin-2-yl)-(Phenyl)Methanone Hydrobromide (1:1)]
2 | medium affinity | 1.2 nM | Cc1ccn2cc(C(=O)c3ccccc3)nc2c1 [Compound 6, (7-methylimidazo[1,2-a]pyridin-2-yl)(phenyl)methanone]
3 |  | 31 nM | O=C(c1ccccc1)c1cn2ccccc2n1 [Compound 7, (imidazo[1,2-a]pyridin-2-yl)(phenyl)methanone]
